This is an account of results in the NIST ThermoML archive (doi:10.1016/j.fluid.2017.08.005).

Numbers after ± are expanded uncertainties.

For this series the following is noted: Liquid, Closed cell (Static) method.

As a reminder, the vapor or sublimation pressure is the equilibrium pressure above the liquid or solid. Take `O=C=O` [carbon dioxide]: where the note is “273.15 K”, the “vapor or sublimation pressure” value came out at 3487 ± 13 kPa.
Consider `FC(F)Cl` [chlorodifluoromethane], for which the “vapor or sublimation pressure” value was determined as 498 ± 3 kPa (273.15 K); 911 ± 3 kPa (293.15 K); 1529 ± 4 kPa (313.15 K); 2426 ± 5 kPa (333.15 K); 3664 ± 7 kPa (353.15 K).
In the case of `C=C` [ethene], the “vapor or sublimation pressure” value (273.15 K) was 4094 ± 16 kPa.
